Data as given in the supplement of paper PMC5579334.

Columns and labels:
HS-PSS [1] = assay: relative IC50 (inflection point of fitted dose-response curve, CellTox-Green cytotoxicity, 72 h; top asymptote may be below 50%); higher = less potent
Method in brief: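 For 72 h at 37 °C, MPNST cell lines and primary human Schwann cells were exposed in 384-well plates to five 10-fold compound dilutions. CellTox-Green, added before seeding at a final 1:1000 dilution, gave fluorescence from DNA released by disrupted cells. Signals were scaled to vehicle and positive-control wells, cultures failing plate quality control were left out, and four-parameter logistic fits were applied. Relative IC50 and drug sensitivity score were derived from the fits, with IC50 censored at the top concentration.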

HS-PSS [2] = assay: relative IC50 (inflection point of fitted dose-response curve, CellTiter-Glo viability, 72 h; top asymptote may be below 50% inhibition); higher = less potent
Method in brief: (§1)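 MPNST cell lines and primary human Schwann cells were seeded at 750–1000 cells per well into 384-well plates preprinted with each compound at five concentrations in 10-fold steps, then incubated 72 h at 37 °C, 5% CO2. CellTiter-Glo ATP luminescence gave viability, scaled between vehicle and positive-control wells, with duplicates averaged where present. Curves were fitted with a four-parameter logistic model. Percent inhibition refers to the top concentration, while drug sensitivity score and relative IC50, censored at the top concentration, come from these fits.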

HS-Sch-2 = assay: as above
Method in brief: as §1

YST-1 = assay: as above
Method in brief: as §1

| Structure (SMILES) | relative IC50 (HS-PSS [1]) [nM] | relative IC50 (HS-PSS [2]) [nM] | relative IC50 (HS-Sch-2) [nM] | relative IC50 (YST-1) [nM] |
| --- | --- | --- | --- | --- |
| OC(CC1c2ccccc2-c2cncn21)C1CCCCC1 (configuration not stated) [NLG919] | > 10000 | > 10000 | > 10000 |  |
| CC1CCC(n2c3cnccc3c3cnc(Nc4ccc5c(n4)CCN(C(=O)CO)C5)nc32)CC1 (configuration not stated) [AMG-925] | > 1000 | > 1000 |  |  |
| N#Cc1c(Oc2ccc(F)c(NC(=O)Cc3cccc(C(F)(F)F)c3)c2)ccc2nc(NC(=O)C3CC3)sc12 [TAK-632] | > 10000 | 3980 | 3860 |  |
| CN(C)C(=O)c1ccc(S(=O)(=O)c2ccc(NC(=O)[C@@](C)(O)C(F)(F)F)c(Cl)c2)cc1 [AZD7545] | > 10000 | 3910 |  | > 10000 |
| Cc1cnc(-c2ccccc2C(C)C)nc1NCc1ccc(-n2ccnn2)cc1 [ML323] | > 10000 | 1670 | 1460 |  |
| Cn1ncnc1[C@H]1c2n[nH]c(=O)c3cc(F)cc(c23)N[C@@H]1c1ccc(F)cc1 [Talazoparib] | > 1000 |  | 105 | 9.15 |
| Cc1nc(-c2cn3c(n2)-c2ccc(-c4cnn(C(C)(C)C(N)=O)c4)cc2OCC3)n(C(C)C)n1 [Taselisib] | > 1000 | 425 |  | 24.9 |
| Cc1c(C(=O)Nc2ccc(N3C[C@@H](C)O[C@@H](C)C3)nc2)cccc1-c1ccc(OC(F)(F)F)cc1 [Sonidegib] | > 10000 | 760 |  | > 10000 |
| CCc1cc(Nc2nccc(-c3c(-c4ccc(OC)c(C(=O)Nc5c(F)cccc5F)c4)nc4ccccn34)n2)c(OC)cc1N1CCC(N2CCN(S(C)(=O)=O)CC2)CC1 | > 10000 | > 10000 |  | 31.2 |
| Cc1ccc(NC(=O)c2ccc(CN3CC[C@H](N(C)C)C3)c(C(F)(F)F)c2)cc1Nc1nccc(-c2cncnc2)n1 [Bafetinib] | > 1000 | > 1000 |  | 259 |
| O=C(Nc1cccc(Cl)c1)Nc1ncc(CCNc2ncnc3ccsc23)s1 [SNS-314] | > 1000 |  | 185 | 8.84 |
| Cn1ncc(Cl)c1-c1cc(C(=O)N[C@H](CN)Cc2cccc(F)c2)sc1Cl [Afuresertib] | > 1000 |  | > 1000 | 327 |
| CNC(=O)c1cccc2cc(Oc3ccnc4cc(OCC5(N)CC5)c(OC)cc34)ccc12 [Lucitanib] | > 10000 |  | 3710 | 1420 |
| NC(=O)c1cccc(-c2cccc(OC(=O)NC3CCCCC3)c2)c1 [URB597] | > 1000 |  | > 1000 | > 1000 |
| COCC1(CO)C(=O)C2CCN1CC2 (configuration not stated) [APR-246] | > 10000 |  | > 10000 | > 10000 |
| Cc1cccc(CC(=O)N2CCc3c2ccc(-c2cn(C)c4ncnc(N)c24)c3F)n1 |  | 993 |  |  |
| CNc1nc(-c2ccc3c(N)n[nH]c3c2)cc(N2C[C@@H](C(=O)NC3CCCCC3)CC[C@H]2C)n1 | > 10000 | 3050 |  | 585 |
| c1cc(CN2CCCNCCNCCCNCC2)ccc1CN1CCCNCCNCCCNCC1 [Plerixafor] | > 10000 |  | > 10000 | > 10000 |
| COc1cc2nccc(Oc3ccc(NC(=O)NC4CC4)c(Cl)c3)c2cc1C(N)=O [Lenvatinib] | > 2500 | > 2500 |  |  |
| CN(C)C(=N)NC(=N)N [Metformin] | > 100000 |  | > 100000 | > 100000 |
| C[C@H](Nc1ncnc2nc[nH]c12)c1cc2cccc(Cl)c2c(=O)n1-c1ccccc1 [Duvelisib] |  | > 500 |  |  |
| CS(=O)(=O)c1ccc(-c2cnc(N)c(C(=O)Nc3ccccc3)n2)cc1 [VE-821] | > 10000 |  | > 10000 | > 10000 |
| Cc1csc(-c2nnc(Nc3ccc(Oc4ncccc4-c4ccnc(N)n4)cc3)c3ccccc23)c1 [AMG-900] | > 1000 |  | 326 | 11 |
| Cn1cnc2c(F)c(Nc3ccc(Br)cc3F)c(C(=O)NOCCO)cc21 [Binimetinib] | > 1000 | > 1000 |  | > 1000 |
| NC(=O)Nc1sc(-c2ccc(F)cc2)cc1C(N)=O [TPCA-1] | > 25000 | 3980 |  | 4330 |
| CC(C)[C@@H](CS(=O)(=O)C(C)C)N1C(=O)[C@@](C)(CC(=O)O)C[C@H](c2cccc(Cl)c2)[C@H]1c1ccc(Cl)cc1 [AMG-232] | > 1000 |  | > 1000 | 190 |

| Structure (SMILES) | relative IC50 (HS-PSS [1]) [nM] | relative IC50 (HS-PSS [2]) [nM] | relative IC50 (HS-Sch-2) [nM] | relative IC50 (YST-1) [nM] |
| --- | --- | --- | --- | --- |
| CC(C)(C)C[C@@H]1N[C@@H](C(=O)N[C@H]2CC[C@H](O)CC2)[C@H](c2cccc(Cl)c2F)[C@]12C(=O)Nc1cc(Cl)ccc12 | > 10000 | 3280 |  | 140 |
| CC[C@H](NC(=O)[C@H](C)NC)C(=O)N1C[C@@H](O)C[C@H]1Cc1c(-c2[nH]c3cc(F)ccc3c2C[C@@H]2C[C@H](O)CN2C(=O)[C@H](CC)NC(=O)[C@H](C)NC)[nH]c2cc(F)ccc12 [Birinapant] | > 1000 |  | > 1000 | > 1000 |
| C[C@@H]1CN(Cc2ccc(F)cc2)[C@@H](C)CN1C(=O)c1cc2c(C(=O)C(=O)N(C)C)cn(C)c2cc1Cl [Talmapimod] | > 10000 |  | > 10000 | 283 |
| O=C(Nc1ccc(-c2ccnc(Nc3ccc(N4CCOCC4)cc3)n2)cc1)[C@H]1CCCN1 [XL019] | > 10000 | 2850 |  |  |
| CNC(=O)CN1CCC(Oc2cc3c(Nc4cccc(Cl)c4F)ncnc3cc2OC)CC1 [Sapitinib] | > 1000 | > 1000 |  |  |
| COc1ccc2c(OCc3nnc4ccc(-c5ccccc5)nn34)ccnc2c1 [AMG-208] | > 2500 |  | > 2500 | > 2500 |
| CNC(=O)[C@@H](NC(=O)[C@H](CC(C)C)[C@H](O)C(=O)NO)C(C)(C)C [Marimastat] | > 10000 | > 10000 |  | > 10000 |
| O=C(O)c1ccc(O)c2ncccc12 [IOX-1] | > 100000 | > 100000 |  | 36600 |
| O=C(O)CC1CC(c2ccccc2)=NO1 (configuration not stated) [VGX-1027] | > 10000 | > 10000 |  | > 10000 |
| Nc1nc(N)c2nc(-c3cccc(O)c3)c(-c3cccc(O)c3)nc2n1 [TG100-115] | > 10000 | > 10000 |  |  |
| C[C@H]1Oc2cc(cnc2N)-c2c(nn(C)c2C#N)CN(C)C(=O)c2ccc(F)cc21 | > 1000 | 10.7 |  | > 1000 |
| O=c1[nH]c(C2CCCN2)nc2c1oc1ccc(Cl)cc12 (configuration not stated) |  | 1500 |  | 1220 |
| CCC(C)n1ncn(-c2ccc(N3CCN(c4ccc(OCC5COC(Cn6cncn6)(c6ccc(Cl)cc6Cl)O5)cc4)CC3)cc2)c1=O (configuration not stated) [Itraconazole] | > 5000 | 904 |  | 1540 |
| O=C(c1cccc(Cl)c1F)N1CCN(Cc2cccc(Nc3nccs3)n2)CC1 [MK-8745] | > 2500 |  | 623 | 231 |
| CNC(=O)c1c(F)cccc1Nc1nc(Nc2cc3c(cc2OC)CCN3C(=O)CN(C)C)nc2[nH]ccc12 |  | 32.1 |  | 73 |
| NC1(C(=O)N[C@@H](CCO)c2ccc(Cl)cc2)CCN(c2ncnc3[nH]ccc23)CC1 [AZD-5363] | > 10000 |  | 3470 | 2090 |
| COc1ccc(Cn2ccc3ccc(C(=O)NO)cc32)cc1 | > 10000 |  | 3750 | 1600 |
| COC(=O)c1ccc2c(c1)[nH]c1ncnc(NCCCN3CCCCC3)c12 [UM729] | > 10000 |  | 3140 | 560 |
| CCNc1nc(Nc2cc(F)c(C(=O)N3CCOCC3)cc2OC)ncc1C(F)(F)F [GNE-7915] | > 1000 | > 1000 |  | > 1000 |
| O=C(c1ccc(/C=C/c2n[nH]c3ccccc23)cc1)N1CCNCC1 [KW-2449] | > 2500 |  | > 2500 | 509 |
| Nc1nc(Nc2ccc3c(c2)CC[C@@H](N2CCCC2)CC3)nn1-c1cc2c(nn1)-c1ccccc1CCC2 [BGB324] | > 10000 |  | 570 | 2140 |
| CCOc1ccn(-c2ccc(F)cc2)c(=O)c1C(=O)Nc1ccc(Oc2ccnc(N)c2Cl)c(F)c1 | > 2500 |  | > 2500 | > 2500 |
| NS(=O)(=O)NCCNc1nonc1/C(=N/O)Nc1ccc(F)c(Br)c1 [Epacadostat] | > 10000 | > 10000 |  |  |
| CNC(=O)c1ccc(-c2cnc3ncc(Cc4ccc5ncccc5c4)n3n2)cc1F [NVP-INC280] | > 1000 | > 1000 |  |  |
| CC[C@H](C)C(=O)O[C@H]1C[C@H](O)C=C2C=C[C@H](C)[C@H](CC[C@@H](O)C[C@@H](O)CC(=O)O)[C@H]21 [Pravastatin] | > 10000 |  | > 10000 | > 10000 |
| FC(F)(F)c1ccc(CNc2ccc(Cc3c[nH]c4ncc(Cl)cc34)cn2)cn1 [Pexidartinib] | > 10000 | 1740 |  |  |
